ChEMBL document CHEMBL4483862, “Open-source discovery of chemical leads for next-generation chemoprotective antimalarials” (2018)

System: Plasmodium berghei
Assay: Luciferase/luciferin-expressing antifolate-resistant parasites were used to infect a culture of HepG2 cells that were pre-incubated with compounds. Infected hepatocytes emit light due to the luciferase reaction. Assay results are presented as the percent inhibition of light emission compared to control. […]
Assay type: functional
Settings: sporozoite; for IC90: read-out: LUCIFERASE INFECTION ASSAY - IC90
[1] = read-out: LUCIFERASE INFECTION ASSAY - IC50

Cc1cc(C2=NNC(=CN3CCc4sccc4C3c3cccs3)O2)c(C)o1 (centres undefined)
IC50 (FFLUC_HILL_SLOPE 3.77, FFLUC_R_SQUARED 0.256, read-out: LUCIFERASE INFECTION ASSAY - IC50): > 10 µM | IC90: > 10 µM

CCN(C(=O)c1ccc(NC(=O)C2CC2)s1)c1ccccc1C
IC50 (PBLUC_HILL_SLOPE 5.48, PBLUC_R_SQUARED 0.146, read-out: LUCIFERASE INFECTION ASSAY - IC50): 9.18 µM | IC90: > 10 µM

N#CC(C#N)=C/C=C(/Sc1nc(-c2ccccc2)cs1)c1ccc(Cl)cc1
IC50 (FFLUC_HILL_SLOPE 19.5, FFLUC_R_SQUARED 0.704, PBLUC_HILL_SLOPE 6.45, PBLUC_R_SQUARED 0.183, read-out: LUCIFERASE INFECTION ASSAY - IC50): > 8.13 µM | IC90: > 8.13 µM

CCN(CC)c1ccc(NC(=O)c2c(F)cccc2F)c(N(CC)CC)n1
IC50 (PBLUC_HILL_SLOPE 1.91, PBLUC_R_SQUARED 0.469, read-out: LUCIFERASE INFECTION ASSAY - IC50): 5.46 µM | IC90: > 8.77 µM

CCOc1ccc(S(=O)(=O)/N=C2\C=C3N(CCO)CCOC3(O)c3ccccc32)cc1 (centres undefined)
IC50 (PBLUC_HILL_SLOPE 3.7, PBLUC_R_SQUARED 0.815, read-out: LUCIFERASE INFECTION ASSAY - IC50): 7.21 µM | IC90: > 10 µM

NNc1nc(C(F)(F)F)nc2c1cnn2-c1ccccc1
IC50 (PBLUC_HILL_SLOPE 6.68, PBLUC_R_SQUARED 0.4, read-out: LUCIFERASE INFECTION ASSAY - IC50): 3.62 µM | IC90: 5.03 µM

CCN(CC)CCn1c(NC(=O)c2cc3c(C)nn(-c4ccc(Cl)cc4)c3s2)nc2ccccc21
IC50 [1]: > 10 µM | IC90: > 10 µM

Cc1cc(CSc2ccccc2C(=O)NNC(=O)c2ccccc2O)on1
IC50 (PBLUC_HILL_SLOPE 2.63, PBLUC_R_SQUARED 0.786, read-out: LUCIFERASE INFECTION ASSAY - IC50): 7.42 µM | IC90: > 10 µM

O=C(Nc1ccc(-c2nc3ccccc3[nH]2)cc1)c1ccc2c(=O)n3c(nc2c1)CCCCCC3
IC50 (HEPG2TOX_HILL_SLOPE 11.2, HEPG2TOX_R_SQUARED 0.937, PBLUC_HILL_SLOPE 12.6, PBLUC_R_SQUARED 0.815, read-out: LUCIFERASE INFECTION ASSAY - IC50): 3.48 µM | IC90: 4.15 µM

CC(NC(=O)c1ccccc1NC(=O)CSc1ccc2c3c(cccc13)CC2)c1ccccc1 (centres undefined)
IC50 (FFLUC_HILL_SLOPE 9.73, FFLUC_R_SQUARED 0.624, HEPG2TOX_HILL_SLOPE 6.39, HEPG2TOX_R_SQUARED 0.223, read-out: LUCIFERASE INFECTION ASSAY - IC50): > 10 µM | IC90: > 10 µM

CC(=O)c1cccc(-c2ccc3ncc(-c4ccoc4)n3n2)c1
IC50 [1]: > 10 µM | IC90: > 10 µM

O=C(c1[nH]nc2ccccc12)N1CCN(S(=O)(=O)c2cccs2)CC1
IC50 (PBLUC_HILL_SLOPE 2.58, PBLUC_R_SQUARED 0.457, read-out: LUCIFERASE INFECTION ASSAY - IC50): 7.61 µM | IC90: > 10 µM

C/C(=N\NC(=S)NCC(C)(C)C)c1cc(F)ccc1O
IC50 [1]: > 11.1 µM | IC90: > 11.1 µM

OC(CNCc1ccc(F)cc1)(c1ccccc1)c1ccc(F)cc1 (centres undefined)
IC50 (HEPG2TOX_HILL_SLOPE 7.21, HEPG2TOX_R_SQUARED 0.703, read-out: LUCIFERASE INFECTION ASSAY - IC50): > 9.72 µM | IC90: > 9.72 µM

Cn1cc(-c2cc(-c3cccc4ccccc34)cnc2N)cn1
IC50 (PBLUC_HILL_SLOPE 11.1, PBLUC_R_SQUARED 0.24, read-out: LUCIFERASE INFECTION ASSAY - IC50): 10.4 µM | IC90: > 11 µM

CCOC(=O)N1CCC(NCC(O)COc2ccc(C(C)(C)C)cc2)CC1 (centres undefined)
IC50 (PBLUC_HILL_SLOPE 1.54, PBLUC_R_SQUARED 0.688, read-out: LUCIFERASE INFECTION ASSAY - IC50): 4.08 µM | IC90: > 10 µM

O=[N+]([O-])c1ccc(N/N=C2\CCSc3ccc(Cl)cc32)cc1
IC50 (FFLUC_HILL_SLOPE 1.76, FFLUC_R_SQUARED 0.654, HEPG2TOX_HILL_SLOPE 8.57, HEPG2TOX_R_SQUARED 0.177, PBLUC_HILL_SLOPE 41.5, PBLUC_R_SQUARED 0.423, read-out: LUCIFERASE INFECTION ASSAY - IC50): 9.27 µM | IC90: 9.78 µM

O=C(Nc1ncc(Cc2ccc(F)c(F)c2)s1)c1ccc2nc[nH]c2c1
IC50 (HEPG2TOX_HILL_SLOPE 13.7, HEPG2TOX_R_SQUARED 0.959, PBLUC_HILL_SLOPE 2.28, PBLUC_R_SQUARED 0.72, read-out: LUCIFERASE INFECTION ASSAY - IC50): 4.35 µM | IC90: > 10 µM

CCCCNC(=O)c1c(NC(=O)c2ccc(F)c(F)c2)nc2ccccn12
IC50 (FFLUC_HILL_SLOPE 25.4, FFLUC_R_SQUARED 0.228, HEPG2TOX_HILL_SLOPE 1.03, HEPG2TOX_R_SQUARED 0.844, PBLUC_HILL_SLOPE 2.52, PBLUC_R_SQUARED 0.719, read-out: LUCIFERASE INFECTION ASSAY - IC50): 0.313 µM | IC90: 0.748 µM

Cc1ccc(CCCNC(=O)c2cc(C3CC3)n[nH]2)c(C)c1
IC50 (PBLUC_HILL_SLOPE 15.6, PBLUC_R_SQUARED 0.22, read-out: LUCIFERASE INFECTION ASSAY - IC50): 3.65 µM | IC90: 4.2 µM

O=C(NC1CC1)c1ccc(-c2cnc3cnc(-c4cnn(Cc5ccccc5)c4)cn23)cc1
IC50 (PBLUC_HILL_SLOPE 12.1, PBLUC_R_SQUARED 0.417, read-out: LUCIFERASE INFECTION ASSAY - IC50): 6.99 µM | IC90: > 7.59 µM

COc1ccc(C(=O)COC(=O)Cc2cccc(C(F)(F)F)c2)cc1
IC50 (HEPG2TOX_HILL_SLOPE 1.29, HEPG2TOX_R_SQUARED 0.956, PBLUC_HILL_SLOPE 8.73, PBLUC_R_SQUARED 0.385, read-out: LUCIFERASE INFECTION ASSAY - IC50): 1.32 µM | IC90: 1.69 µM

O=C(Nc1cc(S(=O)(=O)N2CCCCCC2)ccc1OCC(F)(F)F)c1cccc2c[nH]nc12
IC50 [1]: > 10 µM | IC90: > 10 µM

COc1ccc(C(C)(C)C)cc1NC(=O)c1sc2nc3n(c(=O)c2c1C)CCC3
IC50 [1]: > 10 µM | IC90: > 10 µM

Nc1nccnc1C(=O)NNC(=O)c1cccc(C(F)(F)F)c1
IC50 (HEPG2TOX_HILL_SLOPE 7.79, HEPG2TOX_R_SQUARED 0.494, PBLUC_HILL_SLOPE 4.8, PBLUC_R_SQUARED 0.215, read-out: LUCIFERASE INFECTION ASSAY - IC50): 4.44 µM | IC90: 7.02 µM

CN(C)c1ccc(NC(=O)N2[C@@H]3CC[C@@H](C3)[C@H]2c2nc3cccc(OCc4ccc(F)cc4)c3[nH]2)cc1
IC50 (PBLUC_HILL_SLOPE 11.3, PBLUC_R_SQUARED 0.0257, read-out: LUCIFERASE INFECTION ASSAY - IC50): > 10 µM | IC90: > 10 µM

Cc1cc(C(=O)ONC(=N)c2ccccc2)nn1C(C)(C)C
IC50 (FFLUC_HILL_SLOPE 2.36, FFLUC_R_SQUARED 0.364, PBLUC_HILL_SLOPE 1.16, PBLUC_R_SQUARED 0.78, read-out: LUCIFERASE INFECTION ASSAY - IC50): 0.186 µM | IC90: 1.23 µM

COc1ccc(C(C)C)cc1-c1cnc(N)c(-c2ccc(O)cc2)c1
IC50 (HEPG2TOX_HILL_SLOPE 2.7, HEPG2TOX_R_SQUARED 0.932, PBLUC_HILL_SLOPE 18.7, PBLUC_R_SQUARED 0.395, read-out: LUCIFERASE INFECTION ASSAY - IC50): 3.28 µM | IC90: 3.69 µM

Cc1nc(SCC(=O)N2CCC(c3nc4ccccc4o3)CC2)c2c(C)c(C)sc2n1
IC50 [1]: > 10 µM | IC90: > 10 µM

COc1ccc(-c2ccnc3n[nH]c(-c4ccncc4)c23)cc1
IC50 (HEPG2TOX_HILL_SLOPE 3.34, HEPG2TOX_R_SQUARED 0.878, PBLUC_HILL_SLOPE 1.93, PBLUC_R_SQUARED 0.439, read-out: LUCIFERASE INFECTION ASSAY - IC50): 3.22 µM | IC90: > 10 µM

COc1ccc(-c2nccc3n[nH]c(-c4cccc(C(F)(F)F)c4)c23)cc1OC
IC50 (PBLUC_HILL_SLOPE 15.9, PBLUC_R_SQUARED 0.0621, read-out: LUCIFERASE INFECTION ASSAY - IC50): 9.75 µM | IC90: > 10 µM

Cc1cc2occ(CC(=O)Nc3ccc(N4CCN(C)CC4)nc3)c2cc1C(C)C
IC50 [1]: 9.57 µM | IC90: > 10 µM

OC1CCC(Nc2nn3c(-c4ccc(F)c(Cl)c4)cnc3s2)CC1 (centres undefined)
IC50 [1]: > 9 µM | IC90: > 9 µM

CSc1sc(C(=O)NC(=O)Nc2ccccc2Cl)c2c1-c1nocc1CC2
IC50 (HEPG2TOX_HILL_SLOPE 9.91, HEPG2TOX_R_SQUARED 0.105, read-out: LUCIFERASE INFECTION ASSAY - IC50): > 7.86 µM | IC90: > 7.86 µM

CCCS(=O)(=O)c1cnc(C2COc3ccccc3O2)nc1N (centres undefined)
IC50 (FFLUC_HILL_SLOPE 3.81, FFLUC_R_SQUARED 0.729, PBLUC_HILL_SLOPE 0.615, PBLUC_R_SQUARED 0.774, read-out: LUCIFERASE INFECTION ASSAY - IC50): 0.0301 µM | IC90: 1.07 µM

O=C(/C=C/c1cn(Cc2ccccc2)nc1-c1ccccc1)N1CCN(c2ccncc2)CC1
IC50 (PBLUC_HILL_SLOPE 2.17, PBLUC_R_SQUARED 0.608, read-out: LUCIFERASE INFECTION ASSAY - IC50): 2.22 µM | IC90: 6.13 µM

O=C(NCC12CC3CC(CC(C3)C1)C2)c1ccc2ccccc2c1
IC50 [1]: > 10 µM | IC90: > 10 µM

Cc1cc2c(cc1C)CSC(c1ccccc1OC(=O)c1cccc3ccccc13)SC2
IC50 (FFLUC_HILL_SLOPE 3.12, FFLUC_R_SQUARED 0.597, read-out: LUCIFERASE INFECTION ASSAY - IC50): > 10 µM | IC90: > 10 µM

CCOC(=O)c1sc(N)c(C#N)c1CSc1nnnn1-c1ccccc1
IC50 (HEPG2TOX_HILL_SLOPE 0.327, HEPG2TOX_R_SQUARED 0.288, read-out: LUCIFERASE INFECTION ASSAY - IC50): > 10 µM | IC90: > 10 µM

N#CC(c1nc(-c2ccc(Cl)cc2)cs1)N1CCc2ccccc2C1 (centres undefined)
IC50 [1]: > 10 µM | IC90: > 10 µM

CCOc1ccccc1N1CCN(CC(=O)Nc2cc(C)ccc2C)CC1
IC50 [1]: > 10 µM | IC90: > 10 µM

Cn1c(C(C#N)c2nc(C#N)c(C#N)nc2Cl)nc2ccccc21 (centres undefined)
IC50 (FFLUC_HILL_SLOPE 16, FFLUC_R_SQUARED 0.432, read-out: LUCIFERASE INFECTION ASSAY - IC50): > 10 µM | IC90: > 10 µM
